Assay results as given in ChEMBL document CHEMBL1201862, “PubChem BioAssay data set” (2004).
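A five-concentration, 48-hour dose response in 96-well plates underlies each endpoint, interpolated linearly between surrounding concentrations. Here, GI50 denotes the concentration required for 50% inhibition of growth.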 Active and inactive are the calls of the source. Rule as the data show it: active = GI50 up to about 1.1 µM and inactive = higher.

Legend:
Assay in all cases: growth of human tumour cells (NCI), 48 h
OVCAR-5 = test system: OVCAR-5
ACHN = test system: ACHN
K562 = test system: K562
OVCAR-3 = test system: OVCAR-3
SF-268 = test system: SF-268
SNB-19 = test system: SNB-19
OVCAR-8 = test system: OVCAR-8
KM12 = test system: KM12
SK-MEL-5 = test system: SK-MEL-5
SNB-75 = test system: SNB-75
SF-539 = test system: SF-539
NCI-H522 = test system: NCI-H522
NCI-H460 = test system: NCI-H460
SW-620 = test system: SW-620
MOLT-4 = test system: MOLT-4
HOP-92 = test system: HOP-92
SK-MEL-28 = test system: SK-MEL-28
SK-MEL-2 = test system: SK-MEL-2
LOX IMVI = test system: LOX IMVI
NCI-H226 = test system: NCI-H226

Measured: GI50

CC(C)OP(=O)(OC(C)C)c1nn(-c2ccc([N+](=O)[O-])cc2)c(=N)s1
inactive: OVCAR-5 > 100 µM | ACHN 80.5 µM | K562 61.8 µM | OVCAR-3 77.8 µM | SF-268 > 100 µM | SNB-19 > 100 µM | OVCAR-8 > 100 µM | KM12 > 100 µM | SK-MEL-5 69.5 µM | SNB-75 15 µM | SF-539 > 100 µM | NCI-H522 47.2 µM | NCI-H460 > 100 µM | SW-620 > 100 µM | MOLT-4 75.9 µM | HOP-92 > 100 µM | SK-MEL-28 > 100 µM

O=C(O)c1ccc(NS(=O)(=O)Cc2ccccc2)cc1
inactive: OVCAR-5 > 100 µM | ACHN > 100 µM | K562 > 100 µM | OVCAR-3 > 100 µM | SF-268 > 100 µM | SNB-19 > 100 µM | OVCAR-8 > 100 µM | KM12 > 100 µM | SK-MEL-5 > 100 µM | SNB-75 > 100 µM | SF-539 > 100 µM | NCI-H522 > 100 µM | SK-MEL-2 > 100 µM | NCI-H460 > 100 µM | SW-620 > 100 µM | MOLT-4 > 100 µM | HOP-92 > 100 µM | LOX IMVI > 100 µM | SK-MEL-28 > 100 µM

O=C(N/N=C/C=C/c1ccccc1)[C@H](O)[C@@H](O)C(=O)N/N=C/C=C/c1ccccc1
inactive: OVCAR-5 > 100 µM | ACHN > 100 µM | K562 > 100 µM | SF-268 > 100 µM | SNB-19 > 100 µM | OVCAR-8 > 100 µM | KM12 > 100 µM | SK-MEL-5 > 100 µM | SF-539 > 100 µM | NCI-H522 > 100 µM | SK-MEL-2 > 100 µM | NCI-H460 > 100 µM | SW-620 > 100 µM | MOLT-4 > 100 µM | LOX IMVI > 100 µM | SK-MEL-28 > 100 µM

COC1OC(CS(=O)(=O)O)C(O)C(O)C1O (stereo not drawn)
inactive: OVCAR-5 > 100 µM | K562 > 100 µM | OVCAR-3 > 100 µM | NCI-H226 > 100 µM | SNB-19 > 100 µM | OVCAR-8 > 100 µM | KM12 > 100 µM | SK-MEL-5 > 100 µM | SNB-75 > 100 µM | SK-MEL-2 > 100 µM | NCI-H460 > 100 µM | SW-620 > 100 µM | MOLT-4 > 100 µM | HOP-92 > 100 µM | LOX IMVI > 100 µM | SK-MEL-28 > 100 µM

NC1CCCCC1
inactive: OVCAR-5 386 µM | K562 138 µM | OVCAR-3 190 µM | SF-268 508 µM | SNB-19 187 µM | OVCAR-8 397 µM | KM12 211 µM | SK-MEL-5 283 µM | SNB-75 264 µM | SF-539 164 µM | NCI-H522 344 µM | SK-MEL-2 169 µM | NCI-H460 216 µM | SW-620 419 µM | MOLT-4 195 µM | HOP-92 258 µM | LOX IMVI 506 µM | SK-MEL-28 318 µM

Clc1ccc(-c2nnc(-c3nsc4ccccc34)o2)cc1
inactive: OVCAR-5 58.7 µM | ACHN 25.1 µM | OVCAR-3 14 µM | SF-268 18.5 µM | SNB-19 30.8 µM | OVCAR-8 25.1 µM | KM12 51.5 µM | SK-MEL-5 31.3 µM | SNB-75 8.17 µM | SF-539 20 µM | SK-MEL-2 28.5 µM | NCI-H460 23.3 µM | SW-620 50.5 µM | HOP-92 17.9 µM | LOX IMVI 40.1 µM | SK-MEL-28 33.3 µM

COc1cc([C@@H]2c3cc4c(cc3[C@@H](c3c(O)cc(O)c5c3O[C@H](c3ccc(O)c(O)c3)[C@@H](O)C5)[C@H]3COC(=O)[C@H]23)OCO4)cc(OC)c1O
inactive: OVCAR-5 > 100 µM | ACHN > 100 µM | K562 31.7 µM | OVCAR-3 > 100 µM | SF-268 > 100 µM | SNB-19 > 100 µM | OVCAR-8 > 100 µM | KM12 > 100 µM | SK-MEL-5 46.7 µM | SF-539 58.7 µM | NCI-H522 43.6 µM | SK-MEL-2 > 100 µM | NCI-H460 > 100 µM | SW-620 58.9 µM | MOLT-4 44 µM | HOP-92 > 100 µM | LOX IMVI > 100 µM | SK-MEL-28 89.1 µM

CC12CCCCC1C(=O)C2(Cl)Cl (stereo not drawn)
inactive: OVCAR-5 2.56 µM | ACHN 2.51 µM | K562 1.83 µM | OVCAR-3 1.77 µM | SF-268 2.7 µM | SNB-19 3.31 µM | OVCAR-8 2.04 µM | KM12 1.79 µM | SK-MEL-5 1.83 µM | SNB-75 3.34 µM | SF-539 2.17 µM | NCI-H522 1.89 µM | SK-MEL-2 1.95 µM | NCI-H460 2.28 µM | SW-620 2.05 µM | MOLT-4 1.84 µM | HOP-92 1.69 µM | LOX IMVI 2.64 µM | SK-MEL-28 1.8 µM

CC(SC(=S)N1CCOCC1)C(=O)Nc1nnc(-c2ccc(Cl)cc2)o1 (stereo not drawn)
inactive: OVCAR-5 48.6 µM | ACHN 51.2 µM | OVCAR-3 25.8 µM | NCI-H226 67.8 µM | SF-268 44.3 µM | SNB-19 40 µM | OVCAR-8 42.2 µM | SK-MEL-5 31.6 µM | SNB-75 > 100 µM | SF-539 74.5 µM | SK-MEL-2 31.8 µM | NCI-H460 35.2 µM | SW-620 42.6 µM | MOLT-4 16.1 µM | HOP-92 > 100 µM | LOX IMVI 28.8 µM | SK-MEL-28 > 100 µM

CCC(=O)N/S(=N/S(=O)(=O)c1ccccc1)C(Cl)(Cl)Cl (stereo not drawn)
inactive: OVCAR-5 > 100 µM | ACHN > 100 µM | K562 > 100 µM | OVCAR-3 > 100 µM | NCI-H226 > 100 µM | SF-268 > 100 µM | SNB-19 > 100 µM | OVCAR-8 > 100 µM | KM12 > 100 µM | SK-MEL-5 > 100 µM | SNB-75 > 100 µM | SF-539 > 100 µM | SK-MEL-2 > 100 µM | NCI-H460 > 100 µM | SW-620 > 100 µM | MOLT-4 > 100 µM | HOP-92 > 100 µM | LOX IMVI > 100 µM | SK-MEL-28 > 100 µM

CCN(CC)C(=O)c1cc(OC(C)C)ccc1-c1c(C)cc(OC(C)C)c(OC)c1OC
inactive: OVCAR-5 > 100 µM | ACHN 57.8 µM | K562 44.2 µM | OVCAR-3 71 µM | NCI-H226 98.2 µM | SF-268 > 100 µM | SNB-19 79.1 µM | OVCAR-8 58.5 µM | KM12 57.8 µM | SK-MEL-5 35.6 µM | SF-539 92 µM | NCI-H522 40 µM | SK-MEL-2 46.7 µM | NCI-H460 36.1 µM | SW-620 98.4 µM | MOLT-4 25.5 µM | LOX IMVI 58.9 µM | SK-MEL-28 > 100 µM
